Results as given in ChEMBL document CHEMBL1152749, “Haemolytic activity, cytotoxicity and membrane cell permeabilization of semi-synthetic and natural lupane- and oleanane-type saponins” (Bioorg Med Chem, 2009).

How the values were obtained:
[1] = tested on: DLD-1; test: Cytotoxicity against human DLD1 cells after 48 hrs by resazurin reduction test; format: functional, cell-based; conditions: DLD-1, 48 h
[2] = Toxicity in sheep erythrocytes assessed as induction of hemolysis; format: cell-based, Ovis aries, Erythrocyte; conditions: read-out: HD50 (the source's name)
[3] = Cell membrane permeabilization in human WS1 cells assessed as drug level causing decrease in calcein fluorescence; format: ADME, cell-based
[4] = tested on: A549; test: Cell membrane permeabilization in human A549 cells assessed as drug level causing decrease in calcein fluorescence; format: ADME, cell-based
[5] = tested on: DLD-1; test: Cell membrane permeabilization in human DLD1 cells assessed as drug level causing decrease in calcein fluorescence; format: ADME, cell-based
[6] = tested on: A549; test: Cytotoxicity against human A549 cells after 48 hrs by resazurin reduction test; format: functional, cell-based; conditions: A549, 48 h
[7] = Cytotoxicity against human WS1 cells after 48 hrs by resazurin reduction test; format: cell-based; conditions: WS1, 48 h

| SMILES | IC50 [1] | HC50 [2] | IC50 [3] | IC50 [4] | IC50 [5] | IC50 [6] | IC50 [7] |
| --- | --- | --- | --- | --- | --- | --- | --- |
| C=C(C)[C@@H]1CC[C@]2(C(=O)O)CC[C@]3(C)[C@H](CC[C@@H]4[C@@]5(C)CC[C@H](O[C@@H]6OC[C@H](O)[C@H](O)[C@H]6O[C@@H]6O[C@@H](C)[C@H](O)[C@@H](O)[C@H]6O)C(C)(C)[C@@H]5CC[C@]43C)[C@@H]12 | > 100 µM | 78 µM | > 200 µM | > 200 µM | > 200 µM | > 100 µM | > 100 µM |
| C=C(C)[C@@H]1CC[C@]2(C(=O)O[C@@H]3O[C@H](CO)[C@@H](O)[C@H](O)[C@H]3O)CC[C@]3(C)[C@H](CC[C@@H]4[C@@]5(C)CC[C@H](O[C@@H]6OC[C@H](O)[C@H](O)[C@H]6O[C@@H]6O[C@@H](C)[C@H](O)[C@@H](O)[C@H]6O)C(C)(C)[C@@H]5CC[C@]43C)[C@@H]12 | > 50 µM | > 100 µM | > 200 µM | > 200 µM | > 200 µM | > 50 µM | > 50 µM |
| C=C(C)[C@@H]1CC[C@]2(C(=O)O)CC[C@]3(C)[C@H](CC[C@@H]4[C@@]5(C)CC[C@H](O[C@@H]6OC[C@H](O[C@@H]7O[C@H](CO)[C@@H](O)[C@H](O)[C@H]7O)[C@H](O)[C@H]6O[C@@H]6O[C@@H](C)[C@H](O)[C@@H](O)[C@H]6O)C(C)(C)[C@@H]5CC[C@]43C)[C@@H]12 | > 50 µM | 94 µM | > 200 µM | > 200 µM | > 200 µM | > 50 µM | > 50 µM |
| C=C(C)[C@@H]1CC[C@]2(CO)CC[C@]3(C)[C@H](CC[C@@H]4[C@@]5(C)CC[C@H](O[C@@H]6OC[C@H](O)[C@H](O)[C@H]6O[C@@H]6O[C@@H](C)[C@H](O)[C@@H](O)[C@H]6O)C(C)(C)[C@@H]5CC[C@]43C)[C@@H]12 | > 100 µM | > 100 µM | > 200 µM | > 200 µM | > 200 µM | > 100 µM | > 100 µM |
| C[C@@H]1O[C@@H](O[C@H]2[C@H](O[C@H]3CC[C@@]4(C)[C@@H](CC[C@]5(C)[C@@H]4CC=C4[C@@H]6CC(C)(C)CC[C@]6(C(=O)O)CC[C@]45C)[C@]3(C)CO)OC[C@H](O)[C@@H]2O)[C@H](O)[C@H](O)[C@H]1O [ALPHA-HEDERIN] | 60 µM | 10 µM | 24 µM | 28 µM | 38 µM | 33 µM | 30 µM |
| C[C@@H]1O[C@@H](O[C@H]2[C@H](O[C@H]3CC[C@]4(C)[C@H]5CC=C6[C@@H]7CC(C)(C)CC[C@]7(C(=O)O)CC[C@@]6(C)[C@]5(C)CC[C@H]4C3(C)C)OC[C@H](O[C@@H]3O[C@H](CO)[C@@H](O)[C@H](O)[C@H]3O)[C@@H]2O)[C@H](O)[C@H](O)[C@H]1O [HEDERACOLCHISIDE A1] | 16 µM | 1.7 µM | 3 µM | 4 µM | 4 µM | 15 µM | 5.7 µM |
| C[C@@H]1O[C@@H](O[C@H]2[C@H](O[C@H]3CC[C@@]4(C)[C@@H](CC[C@]5(C)[C@@H]4CC=C4[C@@H]6CC(C)(C)CC[C@]6(C(=O)O)CC[C@]45C)[C@]3(C)CO)OC[C@H](O[C@@H]3O[C@H](CO)[C@@H](O)[C@H](O)[C@H]3O)[C@@H]2O)[C@H](O)[C@H](O)[C@H]1O [HEDERACOLCHISIDE A] | 62 µM | 22 µM | 86 µM | 110 µM | 159 µM | 59 µM | 58 µM |
| CC1(C)CC[C@]2(C(=O)O)CC[C@]3(C)C(=CC[C@@H]4[C@@]5(C)CC[C@H](O)[C@@](C)(CO)[C@@H]5CC[C@]43C)[C@@H]2C1 [HEDERAGENIN] | > 100 µM | > 100 µM | > 200 µM | > 200 µM | > 200 µM | 39 µM | 77 µM |
| CC1(C)CC[C@]2(C(=O)O)CC[C@]3(C)C(=CC[C@@H]4[C@@]5(C)CC[C@H](O[C@@H]6O[C@H](CO)[C@@H](O)[C@H](O)[C@H]6O)[C@@](C)(CO)[C@@H]5CC[C@]43C)[C@@H]2C1 [Hederagenin-3-O-beta-D-glucopyranoside] | 59 µM | 16 µM | 102 µM | 65 µM | 89 µM | 59 µM | 32 µM |
| CC1(C)CC[C@]2(C(=O)O)CC[C@]3(C)C(=CC[C@@H]4[C@@]5(C)CC[C@H](O)C(C)(C)[C@@H]5CC[C@]43C)[C@@H]2C1 [OLEANOLIC_ACID] | > 100 µM | > 100 µM | > 200 µM | > 200 µM | > 200 µM | 27 µM | > 100 µM |
